Assay results published in patent publication US20030226169A1, “DNA sequences encoding antifungal proteins” (priority 1995, published 2003).

Tests used:
[1] = system: yeast; details: at concentrations as high as 500 μg/ml; cited from earlier work
[2] = system: Ascophyta pisi (MUCL 30164); type: cell-based; details: Rs-AFP2 15-mer MPS peptides; one test
Procedure: The following fungal strains were used: Alternaria brassicicola (MUCL 20297), Ascophyta pisi (MUCL 30164), Botrytis cinerea (MUCL 30158), Fusarium culmorum (IMI 180420) and Verticillium dahliae (MUCL 19210).
Fungi were grown on six cereal agar plates at room temperature and under white fluorescent light except for F culmorum and V dahliae which were grown in the dark. The duration of the spore harvest varied between 10 and 25 days depending on the strain. Spores were collected as follows. Five to ten ml of sterile milli-Q water was poured into each dish and the surface of the agar was rubbed with a sterile spatula to obtain a suspension containing mycelium and spores. This suspension was filtered through a sterile glasswool-plugged funnel and the filtrate containing the spores was collected in a sterile polypropylene centrifuge tube. The A brassicicola spores were suspended in sterile 0.1 Tween 20 (Merk, 822184) due to their hydrophobic nature. The spore suspensions were then washed twice by centrifugation at 2,400×g for 15 minutes and resuspended in a small volume of steril milli-Q water. The spore density was determined in a counting chamber and then adjusted to 4×10^7 spores per ml. Aliquots of the spore suspension were transferred to sterile microtubes and an equal volume of sterile 50% glycerol (Merck, 4091) was added to each tube so that a final spore suspension of 2×10^7 spores per ml in 25% glycerol was obtained. After careful mixing of the stock, the spore suspension was transferred in 100 μl aliquots to sterile microtubes and stored at −80° C.
Antifungal activity was measured by photospectrometry as described by Broekaert et al, (1990, FEMS Microbiol Lett, 69:55-60). Tests were performed by adding 20 μl of test solution and 80 μl of a fungal spore suspension (2×10^4 spores/ml) per well in a sterile flat-bottom 96-well microtiterplate. The spore suspension was prepared by diluting the stock spore suspension ([…] in 25% glycerol) 1:1000 in half-strength potato dextrose broth. A positive growth control consisting of eight wells containing 20 μl of sterile milli-Q water and 80 μl of the fungal spore suspension was included in each test. The microtiterplates were incubated (with the lid on) in an aerated place at room temperature and under conditions of darkness for all test organisms.
After 30 minutes of incubation (when the spores are settled on the well bottom) the optical density was measured in a microplate reader (Bio Rad 3550-UV) at 595 nm. Incubation of the microtiterplates continued until the optical density of the control microculture was between 0.250 and 0.500, which took approximately 72 hours (96 hours for V dahliae). Percentage of growth inhibition (% GI) was estimated as 100 times the ratio of the corrected absorbance of the control microculture minus the corrected absorbance of the test microculture over the corrected absorbance of the control microculture at 595 nm. The corrected absorbance values equal the absorbance at 595 nm of the culture measured after 72 or 96 hours minus the absorbance at 595 nm measured after 30 minutes.
% GI=[(Acontrol−Atest/Acontrol]×100
where Acontrol=(A72/96h−A30min)control
The IC50 value is defined as the concentration that gives a 50% growth inhibition after 72 or 96 hours of incubation. The minimum inhibitory concentration (MIC) corresponds to the minimum concentration that gives 100% growth inhibition after 72 or 96 hours incubation.

[3] = system: various fungi; details: on various fungi; cited from earlier work
[4] = system: Botrytis cinerea (MUCL 30158); assay: Antifungal growth inhibition microplate assay (photospectrometry); type: cell-based; details: Rs-AFP2 15-mer MPS peptides; one test
Outline: (§1)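 Spores (2×10^4/ml) in half-strength potato dextrose broth exposed to test solution, incubated in the dark at room temperature for about 72 h (96 h for V. dahliae). Growth by OD595 minus 30-min reading; IC50 is 50% and MIC 100% growth inhibition.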

[5] = system: Alternaria brassicicola (MUCL 20297); assay: as above; type: cell-based; details: Rs-AFP2 15-mer MPS peptides; one test
Outline: as §1

[6] = system: Fusarium culmorum (IMI 180420); assay: as above; type: cell-based
Outline: as §1

[7] = system: Verticillium dahliae (MUCL 19210); assay: as above; type: cell-based; details: Rs-AFP2 15-mer MPS peptides; one test; 96 hours
Outline: as §1

[8] = Table 14: 18-, 19-, 20-mer peptides with C-terminal Phe49, duplo

Rs-AFP2: antifungal protein 2 (plant defensin) from radish (Raphanus sativus) seeds; positive control (QKLCQRPSGTWSGVCGNNNACKNQCIRLEKARHGSCNYVFPAHKCICYFPC; listed as Raphanus sativus)
adverse effects on yeast [1]: does not have adverse effects | MIC VALUES A PISI [2]: 20 to 40 µg/mL | activity relative to Rs-AFP1 [3]: two- to thirty-fold more active | MIC VALUES B CINEREA [4]: >40 µg/mL | MIC VALUES A BRASSICICOLA [5]: 10 µg/mL | MIC VALUES F CULMORUM MPS ([6]; Rs-AFP2 15-mer MPS peptides, medium value of five tests): 5 to 10 µg/mL | MIC VALUES F CULMORUM Split ([6]; Rs-AFP2 15-mer split peptides (extra C-terminal beta-alanine), dilution 500-3.9 μg/ml, duplicate, MIC approximations): 10 µg/mL | MIC ([6]; Table 12: Rs-AFP2 15-mer peptides, ½ PDB): 3 µg/mL | MIC ([6]; Table 12: ½ PDB supplemented with 1 mM CaCl2): 6 µg/mL | MIC ([6]; Table 12: ½ PDB supplemented with 5 mM CaCl2): 6 µg/mL | MIC ([6]; Table 12: ½ PDB supplemented with 10 mM KCl): 3 µg/mL | MIC ([6]; Table 12: ½ PDB supplemented with 50 mM KCl): 3 µg/mL | MIC ([6]; Table 12: ½ PDB supplemented with 50 mM KCl, 1 mM CaCl2): 6 µg/mL | IC50 1/2 PDB ([6]; Table 13: linear β2-β3 loop MPS peptides, 2 × 10^4 spores/ml, duplo): 3.3 ± 0.0 µg/mL | IC50 SMF + pH5 ([6]; Table 13: linear β2-β3 loop MPS peptides, SMF+ (1 mM Ca2+, 50 mM K+) pH5, duplo): 5.2 ± 1.2 μg/ml | IC50 SMF + pH7 ([6]; Table 13: linear β2-β3 loop MPS peptides, SMF+ (1 mM Ca2+, 50 mM K+) pH7, duplo): 6.1 ± 1.3 μg/ml | IC50 SMF + pH5 [6, 8]: 7.2 ± 0.6 μg/ml | IC50 SMF + pH7 [6, 8]: 3.7 ± 0.6 μg/ml | IC50 ½ PDB ([6]; Table 14: 18-, 19-, 20-mer peptides with C-terminal Phe49, peptides single experiment): 2.5 ± 0.8 µg/mL | MIC VALUES V DAHLIAE [7]: 10 µg/mL
